Assay results published in US20130064812A1, “COMBINATION THERAPIES FOR HEMATOLOGIC MALIGNANCIES” (Gilead Calistoga LLC, priority 2011, published 2013).

Tested on: CLL cells with StromaNKTert
Assay: Viability / apoptosis of stroma-exposed CLL cells (Annexin V/PI)
Type: cell-based, human
Procedure: CLL cells were cultured under standardized conditions on stromal cell lines or primary NLC. Briefly, stromal cells were seeded one day prior to each experiment onto 24-well plates (Corning Life Sciences) at a concentration of 3×10^5 cells/mL/well and incubated at 37° C. in 5% CO2. Stromal cell confluence was confirmed by phase contrast microscopy, and CLL cells were then added onto the stromal cell layer at a concentration of 3×10^6 cells/mL. Cultures were then treated with compounds for the specified time periods. CLL cells were removed for analysis by gentle pipetting with media, and were then washed in PBS prior to analysis. A 24-hour co-culture time point was used unless otherwise indicated.
CLL cell viability was determined by analysis of Annexin V-FITC (BD Biosciences, San Diego, Calif.) and Propidium Iodine (PI) (Sigma) by FACS.
To determine whether PI3K inhibition increased the sensitivity of stroma-exposed CLL cells by increasing priming, PB-derived CLL cells cultured with or without StromaNKTert cells for 24 hours and were examined using Annexin-PI and BH3 profiling. […] Stromal co-culture of four CLL patient samples led to protection from apoptosis in untreated cells.

Compound: CC[C@H](Nc1ncnc2[nH]cnc12)c1nc2cccc(F)c2c(=O)n1-c1ccccc1 [Compound I, 5-fluoro-3-phenyl-2-[1-(9H-purin-6-ylamino)-propyl]-3H-quinazolin-4-one]
- apoptosis in stroma-exposed CLL cells (10 μM, untreated less than 10%): More than 40%
- apoptosis versus control in the absence of stroma (four patient samples, 24 hours): induce more apoptosis than the control
- apoptosis versus control in the presence of stroma (four patient samples, 24 hours): induce significantly more apoptosis than the control
- stroma-mediated resistance (CLL cell viability) (two patients, 24 hours, ABT-737 100 nM, compound I 10 μM): profound stroma-mediated resistance
- sensitivity of CLL cells to ABT-737 in the presence of stroma (two resistant CLL patient samples): restored sensitivity of CLL cells to ABT-737 in the presence of stroma
